Here are results for 4 molecules from patent publication US5597703A, “Methods for determing cholesterol oxidase activity in an aqueous test sample, determining whether a test compound is capable of inhibiting cholesterol oxidase activity and determining the degree of cholesterol oxidase inhibitory activity” (priority 1994, dated 1997).

The test system of this assay is cholesterol oxidase. The assay can be described thus: estimating the toxicity of chemical compounds by presence or absence of sterol domain fade-out in a monolayer on cholesterol oxidase aqueous solution. The assay is classed as biochemical. Particulars: cholesterol oxidase 5×10^-3 unit/ml.
Setting [1] is: 1 mM test compound, monolayer DMPC 0.68 mM / cholesterol 0.3 mM / NBD-PC 0.02 mM.

Description: In the first embodiment of the method for estimating the toxicity of chemical compounds, there is used cholesterol oxidase HEPES buffer solution of 5×10^-3 unit/ml as the cholesterol oxidase aqueous solution 12. Herein, HEPES means N-2-hydroxyethylpiperazine-N'-2-ethane sulfonic acid which has 0.1 of ionic strength and 7.45 of pH. […] As the monolayer spread solution 13, there is used a solution consisting of 0.68 mM of DMPC (L-α-dimyristoylphosphatidylcholine), 0.3 mM of cholesterol and 0.02 mM of fluorescent dye labeled phospholipid NBD-PC (1-palmitoyl-2-[12-[(7-nitro-2-1,3-benzoxadiazol-4-yl) amino]dodecanoyl]phosphatidylcholine) chloroform. The monolayer spread solution 13 is dropped in the amount of 9.4 ml thereof onto a surface (42.6 cm^2) of the cholesterol oxidase aqueous solution 12 in which 1 mM of zinc chloride is dissolved, and then there is immediately formed a monolayer on the surface.
In the second embodiment, there is used cholesterol oxidase HEPES buffer solution of 5×10^-3 unit/ml as the cholesterol oxidase aqueous solution 12. In the HEPES solution is dissolved 1 mM of calcium chloride the toxicity of which is to be estimated. As the monolayer spread solution 13, there is used a solution consisting of 0.68 mM of DMPC (L-α-dimyristoylphosphatidylcholine), 0.3 mM of cholesterol and 0.02 mM of fluorescent dye labeled phospholipid NBD-PC (1-palmitoyl-2-[12-[(7-nitro-2-1,3-benzoxadiazol-4-yl)amino]dodecanoyl]phosphatyzircoline) chloroform. Similarly to the first embodiment, the monolayer spread solution 13 is dropped onto a surface of the cholesterol oxidase aqueous solution 12, and then there is immediately formed a monolayer on the surface.
In the third embodiment, there is used cholesterol oxidase HEPES buffer solution of 5×10^-3 unit/ ml as the cholesterol oxidase aqueous solution 12. […] As the monolayer spread solution 13, there is used a solution consisting of 0.68 mM of DPPC (L-α-dipalmitoylphosphatidylcholine), 0.3 mM of dihydrocholesterol and 0.02 mM of fluorescent dye labeled phospholipid NBD-PE (1-palmitoyl-2-[12-[(7-nitro-2-1,3-benzoxadiazol-4-yl) amino]dodecanoyl]phosphatidylethanolamine) chloroform. Similarly to the first embodiment, there is formed a monolayer on a surface of the cholesterol oxidase aqueous solution 12 by dropping the monolayer spread solution 13 as above mentioned on the surface.
In the fourth embodiment, there is used cholesterol oxidase HEPES buffer solution of 5×10^-3 unit/ml as the cholesterol oxidase aqueous solution 12. […] As the monolayer spread solution 13, there is used a solution consisting of 0.68 mM of DPPE (L-α-tdipalmitoylphosphatidylethanolamine), 0.3 mM of pregnenolone and 0.02 mM of fluorescent dye labeled phospholipid TR-DPPE (N-(texasredsulfonyl)-L-α-dipalmitoylphosphatidylethanolamine) chloroform.

For the molecule `[Cl][Hg][Cl]` [mercury (II) chloride], where the note is “1 mM test compound, monolayer DPPC 0.68 mM / dihydrocholesterol 0.3 mM / NBD-PE 0.02 mM”, the “toxicity to cholesterol oxidase (sterol domain fade-out 30 minutes after monolayer formation)” value (from here on “toxicity to cholesterol oxidase”) is “has the toxicity to cholesterol oxidase”.

Take `CCCCCCCCCCCCOS(=O)(=O)[O-].[Na+]` [SDS, sodium dodecyl sulfate]: the “toxicity to cholesterol oxidase” value (0.1 mM test compound, monolayer DPPE 0.68 mM / pregnenolone 0.3 mM / TR-DPPE 0.02 mM) is on record as “has the toxicity to cholesterol oxidase”.

As to `[Cl-].[Cl-].[Zn+2]` [zinc chloride], the “toxicity to cholesterol oxidase” value under setting [1] is given as “toxic to cholesterol oxidase”.

For the molecule `[Ca+2].[Cl-].[Cl-]` [calcium chloride], under setting [1], the “toxicity to cholesterol oxidase” value is on record as “not toxic to cholesterol oxidase”.
